Measurements as given in patent EP0839799A1, “2-HYDROXYPHENYLALKYLAMINE DERIVATIVES AND MAILLARD REACTION INHIBITORS” (KISSEI PHARMACEUTICAL CO., LTD., priority 1995, dated 1996).

Legend:
lysozyme = experiment: Maillard reaction inhibiting activity test (lysozyme and fructose, dimer formation by SDS-PAGE/densitometry); assay type: biochemical; conditions: lysozyme 10 mg/ml, fructose 200mM, 0.5M sodium phosphate buffer pH7.4, 37°C, 1 week, inhibition of lysozyme dimer formation; for Inhibiting Activity (%) Concentration (0.2mM): test compound 0.2mM; for Inhibiting Activity (%) Concentration (2mM): test compound 2mM
Experimental: The test compound (0.2mM or 2mM), lysozyme (lOmg/ml) and fructose (200mM) were dissolved in 0.5M sodium phosphate buffer (pH7.4), and the solution was incubated at 37°C for l week. After incubation, the sample was separated by SDS-PAGE and stained with Coomassie Brilliant Blue R-250. The percentage of formed dimer to total proteins was measured by densitometry. Inhibiting activities of the test compounds were evaluated from comparing the percentage of formed dimer in the presence of the test compound with that in the absence of the test compound.

Male SD rats [1] = experiment: Toxicity test by long-term administration; assay type: in vivo
Experimental: Male SD rats, 6 weeks of age, received STZ (50mg/kg) by single intravenous injection into the tail and were made diabetic. One week after STZ injection, α -amino-2-hydroxyphenylacetic acid-hydrochloride suspended in 0.5% of CMC was given to the diabetic rats by daily oral administration at a dosage of lOOmg/kg. Rats in the control group received O.5% of CMC alone. Compared with the control group, significant reduction in weight and significant increase in number of dead animals were not observed until ten weeks after administration.

[2] = tested on: AGE content in plasma proteins; experiment: Inhibition assay for AGE formation in vivo (AGE content in plasma proteins by ELISA using anti-AGE antibody); parameters: species or system male SD rats; conditions: STZ-induced diabetic rats, 4 weeks, relative to untreated rats (as 100% control)
Experimental: Diabetes was induced in male SD rats, 6 weeks of age, by intravenous single injection of streptozotocin (STZ) (50mg/kg) into tail. One week after diabetes induction, α -amino-2-hydroxyphenylacetic acid.hydrochloride or aminoguanidine was given to the diabetic rats by daily oral administration at dosage of 50mg/kg or lOOmg/kg. After 4 weeks of administration, blood samples were collected and AGE content in plasma proteins was measured by ELISA using anti-AGE antibody. AGE content in drug-treated rats were estimated compared with the average content of untreated rats (as 100% control).

Male SD rats [3] = experiment: Acute toxicity test; assay type: in vivo; conditions: for hematological examinations / death: 2000 mg/kg; for death: single administration 2000 mg/kg, until 7 days after administration
Experimental: Male SD rats, 6 weeks of age and weighing between 140g and 165 g, were conditioned to an overnight fast. α -Amino-2 hydroxyphenylacetic acid.hydrochloride suspended in 0.5% of CMC were given to the rats at a dosage of 2000 mg/kg. Control group rats received 0.5% of CMC alone.
Six hours after administration, all rats were allowed free access to food and water. Seven days after administration, blood samples were collected and tested with hematological examinations. Plasma samples were tested with blood biochemical examinations.

[4] = STZ diabetic rats, 100mg/kg daily oral, until ten weeks, versus control group

SMILES	Inhibiting Activity (%) Concentration (0.2mM) (lysozyme) [%]	Inhibiting Activity (%) Concentration (2mM) (lysozyme) [%]	other results
COC(=O)C(N)c1ccccc1O.Cl (stereo not drawn) [Example 2, Methyl α -amino-2-hydroxyphenylacetate-hydrochloride]	30.6	67.5	–
NC(CC(=O)O)c1ccccc1O (centres unmarked) [Example 10, 3-Amino-3-(2-hydroxyphenyl)propionic acid]	15.0	–	–
CC(C)OC(=O)CCC(N)c1ccccc1O.Cl (centres unmarked) [Example 15, Isopropyl 4-amino-4-(2-hydroxyphenyl)butyrate.hydrochloride]	2.7	–	–
COc1ccc(O)c(C(N)C(=O)O)c1.Cl (stereo not drawn) [Example 4, α -Amino-2-hydroxy-5-methoxyphenylacetic acid-hydrochloride]	30.9	87.4	–
Cl.NC(C(=O)NCCc1ccccc1)c1ccccc1O (stereo not drawn) [Example 9, N-(2-Phenethyl)-α-amino-2-hydroxyphenylacetamidehydrochloride]	–	80.0	–
NC(=O)C(N)c1ccccc1O (stereo not drawn) [Example 7, α -Amino-2-hydroxyphenylacetamide]	38.7	89.3	–
Cl.NC(C(=O)O)c1cc(Cl)ccc1O (stereo not drawn) [Example 3, α -Amino-5-chloro-2-hydroxyphenylacetic acid-hydrochloride]	38.8	88.4	–
COC(=O)C(N)c1cc(O)ccc1O (stereo not drawn) [Example 5, Methyl α -amino-2,5-dihydroxyphenylacetate]	–	48.3	–
Cl.NC(=O)C(N)c1ccccc1O (stereo not drawn) [Example 14, α -Amino-2-hydroxyphenylacetamide-hydrochloride]	21.4	87.6	–
Cl.NC(C(=O)O)c1ccccc1O (stereo not drawn) [Example 1, α -Amino-2-hydroxyphenylacetic acid.hydrochloride]	21.2	86.1	increase in number of dead animals (Male SD rats [1]; [4]): not observed; reduction in weight (Male SD rats [1]; [4]): not observed; toxicity and side effects (Male SD rats [1]; rats, 100mg/kg/day for ten consecutive weeks): significant toxicity and side effects were not observed; AGE content ([2]; 50 mg/kg daily oral): 81.6%; AGE content ([2]; 100mg/kg daily oral): 62.4%; blood biochemical examinations (Male SD rats [3]; 2000 mg/kg single dose, seven days after administration, versus control group): no significant difference was observed; hematological examinations (Male SD rats [3]; 2000 mg/kg single dose, seven days after administration, versus control group, listed as α -Amino-2 hydroxyphenylacetic acid.hydrochloride): no significant difference was observed; hematological examinations (Male SD rats [3]; 2000 mg/kg single dose, seven days after administration, versus control group, listed as α -amino-2-hydroxyphenylacetic acid hydrochloride): a significant effect was not observed; behavior disorder (Male SD rats [3]; 2000 mg/kg single dose, until 6 hours after administration): behavior disorder was not observed; death (Male SD rats [3]; listed as α -Amino-2 hydroxyphenylacetic acid.hydrochloride): all animals did not die; death (Male SD rats [3]; listed as α -amino-2-hydroxyphenylacetic acid hydrochloride): no death was observed
CN(C)C(=O)C(N)c1ccccc1O (stereo not drawn) [Example 6, N,N-Dimethyl-α -amino-2-hydroxyphenylacetamide]	13.0	82.1	–
NC(C(=O)O)c1ccccc1O (single isomer, unassigned) [Example 12, α -Amino-2-hydroxyphenylacetic acid (optical isomer)]	22.4	83.5	–
NC(C(=O)O)c1ccccc1O (single isomer, unassigned) [Example 13, α -Amino-2-hydroxyphenylacetic acid (optical isomer)]	24.0	86.3	–
N=C(N)NN [aminoguanidine, reference compound]	2.9	17.2	AGE content ([2]; aminoguanidine daily oral, dose not stated in the table (50mg/kg or 100mg/kg per method)): 88.8%
Cl.NC(C(=O)NCc1ccccc1)c1ccccc1O (stereo not drawn) [Example 8, N-Benzyl-α-amino-2-hydroxyphenylacetamide-hydrochloride]	13.9	55.3	–
